Measurements: PMC5219620 (International Journal for Parasitology: Drugs and Drug …, 2016)

System: L6 cells
Assay: AlamarBlue in vitro compound toxicity in L6 cells
Type: cell-based, rat
Details: upper bound of TI over T. copemani G1, G2 and T. cruzi

Row | Structure (SMILES) | Therapeutic index (TI), in general over all trypanosomes tested
1 | CCCCCCCCCCCCCCCCOP(=O)([O-])OCC[N+](C)(C)C [Miltefosine, hexadecylphosphocholine] | < 2.4
2 | Nc1nc(N)nc(Nc2ccc([As]3SCC(CO)S3)cc2)n1 (centres unmarked) [Melarsoprol, (2-(4-(4,6-diamino-1,3,5-triazin-2-ylamino)phenyl)-1,3,2-dithiarsolan-4-yl)methanol] | < 12.1
